Each compound was assayed against T1, HIV-integrase (Human immunodeficiency virus type 1 group M subtype B, UniProt P12497) (assay: HIV-Integrase Inhibition Activity (SPA bead integration assay with P33 labeled target DNA)). Details: recombinant integrase, class symbols; read-out: in vitro activity.
T1 construct: Recombinant integrase (0.26 ng) was incubated with the beads
Type: biochemical
How it was run: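 Strand integration read as bead-proximity CPM after P33 target DNA (0.1 fmol) and inhibitor were added to washed integrase–substrate DNA complexes on SPA beads. Enzyme bound 90 min at 37° C; EDTA (10 mM final) terminated reaction; IC50 graded A/B/C.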

Structure (SMILES)	IC50
O=C(NCc1ccc(F)cc1)c1nc2n(c(=O)c1O)CC1CCC2(NC(=O)C2CCCN2S(=O)(=O)c2ccco2)CC1 (stereo not drawn) [Example 410]	< 10 nM
CN(C)C(=O)C(=O)NC12CCCC(Cn3c1nc(C(=O)NCc1ccc(F)cc1)c(O)c3=O)C2 (stereo not drawn) [Example 186, Ethanediamide, N′-[2-[[[(4-fluorophenyl)methyl]amino]carbonyl]-7,8,9,10-tetrahydro-3-hydroxy-4-oxo-7,11-methano-4H-pyrimido[1,2-a]azocin-11(6H)-yl]-N,N-dimethyl-]	< 10 nM
O=C(NC12CCC(CC1)Cn1c2nc(C(=O)NCc2ccc(F)cc2)c(O)c1=O)C(=O)N1CCC[C@H]1CO [Example 69, N-(4-Fluorobenzyl)-3-hydroxy-10-((((2S)-2-(hydroxymethyl)-1-pyrrolidinyl)(oxo)acetyl)amino)-4-oxo-4,6,7,8,9,10-hexahydro-7,10-ethanopyrimido[1,2-a]azepine-2-carboxamide]	< 10 nM
CCN(CC)C(=O)C(=O)NC12CCC(CC1)Cn1c2nc(C(=O)NCc2ccc(F)cc2)c(O)c1=O [Example 97, N,N-Diethyl-N′-(2-((4-fluorobenzyl)carbamoyl)-3-hydroxy-4-oxo-6,7,8,9-tetrahydro-7,10-ethanopyrimido[1,2-a]azepin-10(4H)-yl)ethanediamide]	< 10 nM
CN(C)C(=O)C(=O)NC12CCC(CC1)Cn1c2nc(C(=O)NCc2ccc(Cl)c(Cl)c2)c(O)c1=O [Example 372]	< 10 nM
CN(C)C(=O)C(=O)NC12CCC(CC1)Cn1c2nc(C(=O)NCCCc2ccc(F)cc2)c(O)c1=O [Example 130, N′-(2-((3-(4-Fluorophenyl)propyl)carbamoyl)-3-hydroxy-4-oxo-6,7,8,9-tetrahydro-7,10-ethanopyrimido[1,2-a]azepin-10(4H)-yl)-N,N-dimethylethanediamide]	< 10 nM
CN(C)C(=O)C(=O)NC12CCC(CC1)Cn1c2nc(C(=O)NCc2ccc(S(N)(=O)=O)cc2)c(O)c1=O [Example 379]	< 10 nM
CO[C@H]1C[C@@H](C(=O)NC23CCC(CC2)Cn2c3nc(C(=O)NCc3ccc(F)c(C)c3)c(O)c2=O)N(C(=O)c2cccn2C)C1 [Example 279, 7,10-Ethanopyrimido[1,2-a]azepine-2-carboxamide, N-[(4-fluoro-3-methylphenyl)methyl]-4,6,7,8,9,10-hexahydro-3-hydroxy-10-[[[(2S,4S)-4-methoxy-1-[(1-methyl-1H-pyrrol-2-yl)carbonyl]-2-pyrrolidinyl]carbonyl]amino]-4-oxo-]	< 10 nM
Cc1cc(CNC(=O)c2nc3n(c(=O)c2O)CCC2CCC3(NC(=O)C(=O)N(C)C)C2)ccc1F (stereo not drawn) [Example 212, Ethanediamide, N′-[2-[[[(4-fluoro-3-methylphenyl)methyl]amino]carbonyl]-7,8,9,10-tetrahydro-3-hydroxy-4-oxo-8,11-methano-4H-pyrimido[1,2-a]azocin-11(6H)-yl]-N,N-dimethyl-]	< 10 nM
Cn1cnc(C(=O)NC23CCC(CC2)Cn2c3nc(C(=O)NCc3ccc(F)cc3)c(O)c2=O)n1 [Example 54, N-(4-Fluorobenzyl)-3-hydroxy-10-(((1-methyl-1H-1,2,4-triazol-3-yl)carbonyl)amino)-4-oxo-4,6,7,8,9,10-hexahydro-7,10-ethanopyrimido[1,2-a]azepine-2-carboxamide]	< 10 nM
Cc1cc(CNC(=O)c2nc3n(c(=O)c2O)CC2CCC3(NC(=O)[C@@H]3CC(F)(F)CN3S(C)(=O)=O)CC2)ccc1F [Example 290, 7,10-Ethanopyrimido[1,2-a]azepine-2-carboxamide, 10-[[[(2S)-4,4-difluoro-1-(methylsulfonyl)-2-pyrrolidinyl]carbonyl]amino]-N-[(4-fluoro-3-methylphenyl)methyl]-4,6,7,8,9,10-hexahydro-3-hydroxy-4-oxo-]	< 10 nM
CO[C@H]1C[C@@H](C(=O)NC23CCC(CC2)Cn2c3nc(C(=O)NCc3ccc(F)c(C)c3)c(O)c2=O)N(C(=O)c2ccno2)C1 [Example 280, 7,10-Ethanopyrimido[1,2-a]azepine-2-carboxamide, N-[(4-fluoro-3-methylphenyl)methyl]-4,6,7,8,9,10-hexahydro-3-hydroxy-10-[[[(2S,4S)-1-(5-isoxazolylcarbonyl)-4-methoxy-2-pyrrolidinyl]carbonyl]amino]-4-oxo-]	< 10 nM
CN(C)C(=O)C(=O)NC12CCC(CC1)Cn1c2nc(C(=O)NCc2ccc(Cl)cc2)c(O)c1=O [Example 374]	< 10 nM
O=C(NC12CCC(CC1)Cn1c2nc(C(=O)NCc2ccc(F)cc2)c(O)c1=O)C(=O)N1CCCCC1 [Example 59, N-(4-Fluorobenzyl)-3-hydroxy-4-oxo-10-((oxo(1-piperidinyl)acetyl)amino)-4,6,7,8,9,10-hexahydro-7,10-ethanopyrimido[1,2-a]azepine-2-carboxamide]	< 10 nM
O=C(NC12CCC(CC1)Cn1c2nc(C(=O)NCc2ccc(F)cc2)c(O)c1=O)C(=O)N1CCC1 [Example 67, 10-((1-Azetidinyl(oxo)acetyl)amino)-N-(4-fluorobenzyl)-3-hydroxy-4-oxo-4,6,7,8,9,10-hexahydro-7,10-ethanopyrimido[1,2-a]azepine-2-carboxamide]	< 10 nM
Cc1nnc(C(=O)NC23CCC(CC2)Cn2c3nc(C(=O)NCc3ccc(F)cc3)c(O)c2=O)o1 [Example 53, N-(4-Fluorobenzyl)-3-hydroxy-10-(((5-methyl-1,3,4-oxadiazol-2-yl)carbonyl)amino)-4-oxo-4,6,7,8,9,10-hexahydro-7,11-ethanopyrimido[1,2-a]azepine-2-carboxamide]	< 10 nM
CS(=O)(=O)N1CCN(C(=O)NC23CCC(CC2)Cn2c3nc(C(=O)NCc3ccc(F)cc3)c(O)c2=O)C1=O [Example 23, N-(4-Fluorobenzyl)-3-hydroxy-10-(((3-(methylsulfonyl)-2-oxo-1-imidazolidinyl)carbonyl)amino)-4-oxo-4,6,7,8,9,10-hexahydro-7,10-ethanopyrimido[1,2-a]azepine-2-carboxamide]	< 10 nM
Cn1cncc1CN1CCN(C(=O)C(=O)NC23CCC(CC2)Cn2c3nc(C(=O)NCc3ccc(F)cc3)c(O)c2=O)CC1 [Example 136, N-(4-Fluorobenzyl)-3-hydroxy-10-(((4-((1-methyl-1H-imidazol-5-yl)methyl)-1-piperazinyl)(oxo)acetyl)amino)-4-oxo-4,6,7,8,9,10-hexahydro-7,10-ethanopyrimido[1,2-a]azepine-2-carboxamide]	< 10 nM
CN(C)C(=O)C(=O)NC12CCC(CC1)Cn1c2nc(C(=O)NCc2cccnc2)c(O)c1=O [Example 364]	10 to 100 nM
O=C(NC12CCC(CC1)Cn1c2nc(C(=O)NCc2ccc(F)cc2)c(O)c1=O)C(=O)N1CCC(F)(F)C1 [Example 70, 10-(((3,3-Difluoro-1-pyrrolidinyl)(oxo)acetyl)amino)-N-(4-fluorobenzyl)-3-hydroxy-4-oxo-4,6,7,8,9,10-hexahydro-7,10-ethanopyrimido[1,2-a]azepine-2-carboxamide]	< 10 nM
CN(C)C12CCC(CC1)Cn1c2nc(C(=O)NCc2ccc(F)cc2)c(O)c1=O [Example 150, 10-(Dimethylamino)-N-(4-fluorobenzyl)-3-hydroxy-4-oxo-4,6,7,8,9,10-hexahydro-7,10-ethanopyrimido[1,2-a]azepine-2-carboxamide]	> 100 nM

Source: US8129398B2 (priority 2008, dated 2012)
